Experimental data reported in patent publication US8969055B2 (priority 2009, dated 2015).
Like-named read-outs stand apart in the source and are kept apart here.

Tests used:
[1] = Example 3 fermentation, oleyl alcohol
Method: Filter sterilized solutions of ampicillin, thiamine hydrochloride, and glucose were added to the fermentor medium, post sterilization, to a final concentration of 100 mg/L, 5 mg/L and 20 g/L respectively. Fermentations were run using a 1 L autoclavable bioreactor, Bio Console ADI 1025 (Applikon, Inc, Holland) with a working volume of 900 mL. The temperature was maintained at 30° C. during the entire fermentation and the pH was maintained at 6.8 using ammonium hydroxide. Following inoculation of the sterile fermentation medium with seed culture (2-10 vol %), the fermentor was operated aerobically at a 30% dissolved oxygen (DO) set point with 0.3 vvm of air flow by automatic control of the agitation rate (rpm). […] Four hours post induction, fermentation conditions were switched to microaerobic conditions by decreasing the airflow to 0.13 slpm and setting the DO set point to 3-5%. […] Glucose was added as a bolus (50 wt % stock solution) to the fermentor on a need basis to keep levels of glucose between 20 g/L and 2 g/L.
Glucose levels were monitored using HPLC and YSI as described above herein.

[2] = oleyl alcohol/BFM, 30° C.
Excerpt: The aqueous and organic phases in each flask were separated by decantation.
Each data point corresponding to a specified level of electrolyte as shown in Table 3 and Table 4 was repeated twice and values for Kp reported as the average of the two flasks.

4KO E. coli strain = conditions: for E. coli Growth Rate (μ): 4KO E. coli, BFM + betaine, 30° C.
Method: From a frozen vial, 25 mL of seed culture was grown in Difco LB broth, Miller medium, purchased from BD Laboratories (Becton & Dickinson and Company, Sparks, Md., 21152, USA) at 30° C., 200 RPM. […] Samples were withdrawn at defined time points to monitor biomass growth as measured by OD600. Growth rates were calculated from the biomass time profiles by fitting exponential growth rate equations.

[3] = Activity of enzyme expressed from sadB gene in cell-free extracts of Mach1/pTrc99a::sadB; assay type: biochemical, Achromobacter xylosoxidans; conditions: isobutyraldehyde as the standard
Method: The sadB coding region was then cloned into the vector pTrc99a (Amann et al., Gene 69: 301-315, 1988). The pCR4Blunt::sadB was digested with EcoRI, releasing the sadB fragment, which was ligated with EcoRI-digested pTrc99a to generate pTrc99a::sadB. This plasmid was transformed into E. coli Mach 1 cells and the resulting transformant was named Mach1/pTrc99a::sadB. The activity of the enzyme expressed from the sadB gene in these cells was determined to be 3.5 mmol/min/mg protein in cell-free extracts when analyzed using isobutyraldehyde as the standard.

For Isobutanol, the “Kp [Conc in OA phase]/[Conc in Aq Phase]” value ([1]; Na2SO4 added 0 moles/L, total salts 0.05 moles/L) was 3.1, the “Kp [Conc in OA phase]/[Conc in Aq Phase]” value ([1]; Na2SO4 added 0.28 moles/L, total salts 0.33 moles/L) was 4.5 and the “Kp [Conc in OA phase]/[Conc in Aq Phase]” value ([1]; Na2SO4 added 0.42 moles/L, total salts 0.47 moles/L) was 5.4. The Kp ([2]; Na2SO4 added 0.00 moles/L, total salts 0.14 moles/L) was 4.80, the Kp ([2]; Na2SO4 added 0.03 moles/L, total salts 0.17 moles/L) was 5.03 and the Kp ([2]; Na2SO4 added 0.07 moles/L, total salts 0.21 moles/L) was 5.25. The Kp ([2]; Na2SO4 added 0.15 moles/L, total salts 0.29 moles/L) was 5.78, the Kp ([2]; Na2SO4 added 0.22 moles/L, total salts 0.36 moles/L) was 6.37 and the Kp ([2]; Na2SO4 added 0.29 moles/L, total salts 0.43 moles/L) was 7.12. For the same molecule, the Kp ([2]; Na2SO4 added 0.44 moles/L, total salts 0.58 moles/L) was 8.34, the Kp ([2]; Na2SO4 added 0.67 moles/L, total salts 0.81 moles/L) was 10.50 and the Kp ([2]; Na2SO4 added 1.00 moles/L, total salts 1.14 moles/L) was 15.95. For the same molecule, the Kp ([2]; Na2SO4 added 1.33 moles/L, total salts 1.47 moles/L) was 24.68, the Kp ([2]; Na2SO4 added 2.00 moles/L, total salts 2.14 moles/L) was 60.99 and the Kp ([2]; NaCl added 0.00 moles/L, total salt 0.14 moles/L) was 4.87. For the same molecule, the Kp ([2]; NaCl added 0.01 moles/L, total salt 0.15 moles/L) was 4.87, the Kp ([2]; NaCl added 0.04 moles/L, total salt 0.18 moles/L) was 4.89 and the Kp ([2]; NaCl added 0.07 moles/L, total salt 0.21 moles/L) was 4.95. For the same molecule, the Kp ([2]; NaCl added 0.11 moles/L, total salt 0.25 moles/L) was 5.00, the Kp ([2]; NaCl added 0.14 moles/L, total salt 0.28 moles/L) was 5.00 and the Kp ([2]; NaCl added 0.21 moles/L, total salt 0.35 moles/L) was 5.22. The Kp ([2]; NaCl added 0.33 moles/L, total salt 0.47 moles/L) was 5.04, the Kp ([2]; NaCl added 0.67 moles/L, total salt 0.81 moles/L) was 5.91 and the Kp ([2]; NaCl added 1.00 moles/L, total salt 1.14 moles/L) was 6.88. It also gave a Kp ([2]; NaCl added 1.33 moles/L, total salt 1.47 moles/L) of 8.06.

With `O=S(=O)([O-])[O-].[Na+].[Na+]` [Na2SO4, Sodium sulfate] the “drop in growth rate” value (4KO E. coli strain; 1M salt concentration) was “greater than 80%”, the “E. coli Growth Rate (μ)” value (4KO E. coli strain; Na2SO4 added 0.03 mole/L, total salts 0.17 moles/L) was 0.79 h⁻¹ and the “E. coli Growth Rate (μ)” value (4KO E. coli strain; Na2SO4 added 0.07 mole/L, total salts 0.21 moles/L) was 0.79 h⁻¹. For the same molecule, the “E. coli Growth Rate (μ)” value (4KO E. coli strain; Na2SO4 added 0.15 mole/L, total salts 0.29 moles/L) was 0.79 h⁻¹, the “E. coli Growth Rate (μ)” value (4KO E. coli strain; Na2SO4 added 0.22 mole/L, total salts 0.36 moles/L) was 0.74 h⁻¹ and the “E. coli Growth Rate (μ)” value (4KO E. coli strain; Na2SO4 added 0.29 mole/L, total salts 0.43 moles/L) was 0.69 h⁻¹. For the same molecule, the “E. coli Growth Rate (μ)” value (4KO E. coli strain; Na2SO4 added 0.44 mole/L, total salts 0.58 moles/L) was 0.60 h⁻¹, the “E. coli Growth Rate (μ)” value (4KO E. coli strain; Na2SO4 added 0.67 mole/L, total salts 0.81 moles/L) was 0.55 h⁻¹ and the “E. coli Growth Rate (μ)” value (4KO E. coli strain; Na2SO4 added 1.00 mole/L, total salts 1.14 moles/L) was 0.14 h⁻¹. For the same molecule, the “E. coli Growth Rate (μ)” value (4KO E. coli strain; Na2SO4 added 1.33 mole/L, total salts 1.47 moles/L) was “Negligible growth”, the “E. coli Growth Rate (μ)” value (4KO E. coli strain; Na2SO4 added 2.00 mole/L, total salts 2.14 moles/L) was “Negligible Growth” and the “loss of growth rate compared to no electrolyte control” value (4KO E. coli strain; about 0.67 M Na2SO4 (total salt level of 0.81 M)) was 30%.

B1: enzyme expressed from the sadB gene: butanol dehydrogenase from Achromobacter xylosoxidans (protein SEQ ID NO: 10) (protein)
chain: MKALVYHGDHKISLEDKPKPTLQKPTDVVVRVLKTTICGTDLGIYKGKNPEVADGRILGHEGVGVIEEVGESVTQFKKGDKVLISCVTSCGSCDYCKKQLYSHCRDGGWILGYMIDGVQAEYVRIPHADNSLYKIPQTIDDEIAVLLSDILPTGHEIGVQYGNVQPGDAVAIVGAGPVGMSVLLTAQFYSPSTIIVIDMDENRLQLAKELGATHTINSGTENVVEAVHRIAAEGVDVAIEAVGIPATWDICQEIVKPGAHIANVGVHGVKVDFEIQKLWIKNLTITTGLVNTNTTPMLMKVASTDKLPLKKMITHRFELAEIEHAYQVFLNGAKEKAMKIILSNAGAA
modifications: Achromobacter xyloxidans
In the case of B1, the “activity of the enzyme” value [3] is reported as 3.5 mmol/min/mg protein.
